Counter-ions that a name gives are not always drawn. Like-named read-outs stand apart in the source and are kept apart here.

In the assay the target is T1, Rat brain protein farnesyltransferase (Rattus norvegicus, UniProt Q02293+Q04631).
T1 construct: Rat brain protein farnesyltransferase activity is measured; from tissue; host or cells: rat brain
Nature of the assay: % inhibition of farnesylation, scintillation proximity assay with biotin-K Ras B fragment. Conditions: for inhibition at 0.1 µM: read-out: % inhibition at 0.1 μM (*). The assay is classed as biochemical. In outline:
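Rat brain enzyme, purified through three steps, in a scintillation proximity assay kit with biotin-K Ras B fragment substrate at 0.1 mM final. Value is % inhibition of farnesylation.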
Background: Scintillation proximity formats need no separation of bound from free tracer.

[1] abbreviates: Table 6, * footnote 0.1 μM (title: 0.1 mM).
The mark [2] stands for this setting: read-out: % inhibition at 0.01 μM (**), Table 6, ** footnote 0.01 μM (title: 0.01 mM).
Where [3] appears, read: Table 6, ** footnote 0.01 μM (title: 0.01 mM).
[4] abbreviates: read-out: % inhibition at 0.01 μM (**).

T1 sequence (Q02293 whole entry, one chain of several): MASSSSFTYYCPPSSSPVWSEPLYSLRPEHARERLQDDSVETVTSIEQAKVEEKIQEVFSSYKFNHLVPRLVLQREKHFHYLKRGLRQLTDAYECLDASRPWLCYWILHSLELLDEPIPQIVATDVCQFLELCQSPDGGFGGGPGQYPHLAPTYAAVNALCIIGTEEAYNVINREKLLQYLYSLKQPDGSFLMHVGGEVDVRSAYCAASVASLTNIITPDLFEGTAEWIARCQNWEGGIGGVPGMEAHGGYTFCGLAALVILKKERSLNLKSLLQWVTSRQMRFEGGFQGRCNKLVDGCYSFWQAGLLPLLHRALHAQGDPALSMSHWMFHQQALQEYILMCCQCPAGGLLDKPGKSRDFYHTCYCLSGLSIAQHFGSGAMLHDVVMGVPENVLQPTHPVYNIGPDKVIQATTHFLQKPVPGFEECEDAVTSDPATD

For the compound `CSCC[C@H](NC(=O)c1ccc(CN2CCC[C@@H]2COCc2ccccc2)cc1-c1ccccc1C)C(=O)O` [Example 993], the % inhibition (as a rule, how much of the control response was suppressed) at 1 × 10^-7 M (Table 3, 1 × 10^-7 M) is on record as 90%.

Consider `CSCC[C@H](NC(=O)c1ccc(CO[C@H](CSC(C)(C)C)Cc2ccccc2)cc1-c1ccccc1C)C(=O)O` [Example 994, N-[4-(1-t-butylthio-3-phenylprop-2-oxymethyl)-2-(2-methylphenyl)benzoyl]methionine], for which, where the note is “read-out: % inhibition at 1 × 10^-8 M, Table 4, 1 × 10^-8 M”, the inhibition (usually the percentage by which the read-out fell short of the control) at 0.01 µM is 83%.

Consider `CCSC[C@H](CCc1ccccc1)NCc1ccc(C(=O)N[C@@H](CCSC)C(=O)O)c(-c2ccccc2C)c1` [Example 995], for which the “% inhibition at 1 × 10^-8 M” value (Table 4, 1 × 10^-8 M) amounted to 92%. Consider `CCCCS(=O)(=O)N(Cc1ccc(C(=O)N[C@@H](CCSC)C(=O)O)c(-c2ccccc2C)c1)CC1CCCCC1` [Example 996], for which, where the note is “Table 4, 1 × 10^-8 M”, the “% inhibition at 1 × 10^-8 M” value was determined as 80%. For the compound `CSCC[C@H](NC(=O)c1ccc(COCc2ccccc2CO)cc1-c1ccccc1C)C(=O)O` [Example 1043, N-[4-(2-hydroxymethylbenzyloxymethyl)-2-(2-methylphenyl)benzoyl]methionine,lithium salt], under setting [1], the inhibition at 0.1 µM was determined as 90%. Still for that read-out and setting: the result for `CSCC[C@H](NC(=O)c1ccc(COCc2cccc(CO)c2)cc1-c1ccccc1C)C(=O)O` [Example 1044, N-[4-(3-hydroxymethylbenzyloxymethyl)-2-(2-methylphenyl)benzoyl]methionine,lithium salt] reads 76%. Same read-out and setting: with `CSCC[C@H](NC(=O)c1ccc(COCc2ccc(CO)cc2)cc1-c1ccccc1C)C(=O)O` [Example 1045, N-[4-(4-hydroxymethylbenzyloxymethyl)-2-(2-methylphenyl)benzoyl]methionine,lithium salt] the figure was 86%. With `CSCC[C@H](NC(=O)c1ccc(CO[C@H](CO)CC2CCCCC2)cc1-c1ccccc1C)C(=O)O` [Example 1049, N-[4-(3-cyclohexyl-1-hydroxyprop-2-yloxymethyl)-2-(2-methylphenyl)benzoyl]methionine, lithium salt], the inhibition at 0.01 µM under setting [2] stood at 93%. Still for that read-out and setting: with `COCCOCOC[C@H](CC1CCCCC1)OCc1ccc(C(=O)N[C@@H](CCSC)C(=O)O)c(-c2ccccc2C)c1` [Example 1050, N-[4-(3-cyclohexyl-1-(2-methoxyethoxymethyleneoxy)prop-2-yloxymethyl)-2-(2-methylphenyl)benzoyl]methionine, lithium salt] the figure was 62%. Regarding `COc1ccc(COC[C@H](CC2CCCCC2)OCc2ccc(C(=O)N[C@@H](CCSC)C(=O)O)c(-c3ccccc3C)c2)cc1` [Example 1051, N-[4-(3-cyclohexyl-1-(4-methoxybenzyloxy)prop-2-yloxymethyl)-2-(2-methylphenylbenzoyl]methionine, lithium salt], the inhibition at 0.01 µM under setting [2] is 79%. Still for that read-out and setting: with `CSCC[C@H](NC(=O)c1ccc(CO[C@@H](CC2CCCCC2)C(=O)N2CCCCC2)cc1-c1ccccc1C)C(=O)O` [Example 1052, N-[4-(3-cyclohexyl-N-piperidin-1-ylpropion-2-yloxymethyl)-2-(2-methylphenyl)benzoyl]methionine, lithium salt] the figure was 91%; with `CSCC[C@H](NC(=O)c1ccc(CO[C@@H](CC2CCCCC2)C(=O)N2CCOCC2)cc1-c1ccccc1C)C(=O)O` [Example 1053, N-[4-(3-cyclohexyl-N-morpholin-4-ylpropion-2-yloxymethyl)-2-(2-methylphenyl)benzoyl]methionine, lithium salt], 60%.

Regarding `CSCC[C@H](NC(=O)c1ccc(CO[C@@H](CC2CCCCC2)C(=O)N2CCSCC2)cc1-c1ccccc1C)C(=O)O` [Example 1054, N-[4-(3-cyclohexyl-N-thiomorpholin-4-ylpropion-2-yloxymethyl)-2-(2-methylphenyl)benzoyl]methionine, lithium salt], the inhibition at 0.01 µM under setting [2] worked out at 89%.

Turning to `CSCC[C@H](NC(=O)c1ccc(CO[C@@H](CC2CCCCC2)C(=O)N2CC[S+]([O-])CC2)cc1-c1ccccc1C)C(=O)O` [Example 1055, N-[4-(3-cyclohexyl-N-thiomorpholin-S-oxide-4-ylpropion-2-yloxymethyl)-2-(2-methylphenyl)benzoyl]methionine, lithium salt], the inhibition at 0.01 µM under setting [2] came to 85%.

Consider `CSCC[C@H](NC(=O)c1ccc(COCc2ccc(C3CCCCC3)o2)cc1-c1ccccc1C)C(=O)O` [Example 1090, [4-(2-(5-cyclohexylfuranyl)methoxymethyl)-2-(2-methylphenyl)-benzoyl]methionine, lithium salt], for which the inhibition at 0.01 µM under setting [2] stood at 81%. `CSCC[C@H](NC(=O)c1ccc(CN(CCF)CCC2CCCCC2)cc1-c1ccccc1C)C(=O)O` [Example 1094]: the “% inhibition at 0.01 μM (**)” value under setting [3] was 96%. As for `CCCCC(OCc1ccc(C(=O)N[C@@H](CCSC)C(=O)O)c(-c2ccccc2C)c1)c1scnc1C` (stereo partly shown) [Example 1095, N-[4-(1-(4-methylthiazol-5-yl)pentyloxy)methyl)-2-(2-methylphenyl)benzoyl]methionine lithium salt], the inhibition at 0.1 µM under setting [1] worked out at 76%. Turning to `CSCC[C@H](NC(=O)c1ccc(COC(CC2CCCCC2)c2sc(C)nc2C)cc1-c1ccccc1C)C(=O)O` (stereo partly shown) [Example 1096, N-[4-(1-(2,4-dimethylthiazol-5-yl)-2-cyclohexylethoxy)methyl)-2-(2-methylphenyl)benzoyl]methionine lithium salt], under setting [1], the inhibition at 0.1 µM worked out at 86%.

Turning to `CSCC[C@H](NC(=O)c1ccc(COC(CC2CCCCC2)c2scnc2C)cc1-c1ccccc1C)C(=O)O` (stereo partly shown) [Example 1097, N-[4-(1-(4-methylthiazol-5-yl)-2-cyclohexylethoxy)methyl)-2-(2-methylphenyl)benzoyl]methionine lithium salt], under setting [2], the inhibition at 0.01 µM turned out to be 80%.

In the case of `CCCCC(OCc1ccc(C(=O)N[C@@H](CCSC)C(=O)O)c(-c2ccccc2C)c1)c1sc(C)nc1C` (stereo partly shown) [Example 1098, N-[4-1-(2,4-dimethylthiazol-5-yl)pentyloxy)methyl-2-(2-methylphenyl)benzoyl]methionine lithium salt], the inhibition at 0.1 µM under setting [1] turned out to be 60%.

As to `COCCN(CCC1CCCCC1)Cc1ccc(C(=O)N[C@@H](CCSC)C(=O)O)c(-c2ccccc2C)c1` [Example 1104], under setting [3], the “% inhibition at 0.01 μM (**)” value is 89%.

In the case of `CSCC[C@H](NC(=O)c1ccc(COCC2CCCN2C(=O)OCc2ccccc2)cc1-c1ccccc1C)C(=O)O` (stereo partly shown) [Example 1128, lithium salt], the inhibition at 0.1 µM under setting [1] amounted to 86%. Consider `CSCC[C@H](NC(=O)c1ccc(COCC2CCCN2C(=O)OCC2CCCCC2)cc1-c1ccccc1C)C(=O)O` (stereo partly shown) [Example 1129, N-[4-(N-cyclohexylmethoxycarbonylpyrrolin-2-ylmethoxymethyl)-2-(2-methylphenyl)benzoyl]methionine Sodium salt], for which, under setting [2], the inhibition at 0.01 µM worked out at 92%. Take `CCSCC(CC1CCCCC1)NCc1cc(-c2ccccc2C)c(C(=O)N[C@@H](CCSC)C(=O)O)cc1F` (stereo partly shown) [Example 1134]: the “% inhibition at 0.01 μM (**)” value under setting [3] was found to be 95%.

For `CCC(=O)N(CCCc1ccc(C(=O)N[C@@H](CCSC)C(=O)O)c(-c2ccccc2C)c1)C1CCCCC1` [Example 1145], the “% inhibition at 0.1 μM (*)” value under setting [1] was found to be 83%. In the case of `CSCC[C@H](NC(=O)c1ccc(CCC(=O)OC2CCCCC2)cc1-c1ccccc1C)C(=O)O` [Example 1152, N-[4-(cyclohexyloxycarbonylethyl)-2-(2-methylphenyl)benzoyl]methionine], the inhibition at 0.1 µM under setting [1] was 96%. Still for that read-out and setting: the result for `CSCC[C@H](NC(=O)c1ccc(CCC(=O)OCC2CCCCC2)cc1-c1ccccc1C)C(=O)O` [Example 1153, N-[4-(cyclohexylmethoxycarbonylethyl)-2-(2-methylphenyl)benzoyl]methionine] reads 89%; that for `CCCCC(CCC1CCCCC1)OCc1ccc(C(=O)N[C@@H](CCSC)C(=O)O)c(-c2ccccc2C)c1` (stereo partly shown) [Example 1192, N-[4-(1-Cyclohexylheptan-3-yloxymethyl-2-(2-methylphenyl)benzoyl]methioninelithium salt], 91%.

As for `CCCCN(CCN1CCCCC1)Cc1ccc(C(=O)N[C@@H](CCSC)C(=O)O)c(-c2ccccc2C)c1` [Example 1196], the “% inhibition at 0.1 μM (*)” value under setting [1] was 87%. Turning to `CCCCC(OCc1ccc(C(=O)N[C@@H](CCSC)C(=O)O)c(-c2ccccc2C)c1)c1cccc(Cl)c1` (stereo partly shown) [Example 1206, N-[4-(1-(3-chlorophenyl)pentan-1-yloxymethyl)-2-(2-methylphenyl)benzoyl]methionine lithium salt], under setting [4], the inhibition at 0.01 µM stood at 63%. With `CSCC[C@H](NC(=O)c1ccc(COC(CCC2CCCCC2)c2cccc(Cl)c2)cc1-c1ccccc1C)C(=O)O` (stereo partly shown) [Example 1207, N-[4-(1-(3-chlorophenyl)-3-cyclohexylpropan-1-yloxymethyl)-2-(2-methylphenyl)benzoyl]methionine lithium salt], the inhibition at 0.1 µM was determined as 91%. On the same count and under the same terms, the result for `CCCCC(OCc1ccc(C(=O)N[C@@H](CCSC)C(=O)O)c(-c2ccccc2C)c1)c1cccc(OC)c1` (stereo partly shown) [Example 1208, N-[4-(1-(3-Methoxyphenyl)pentan-1-yloxymethyl)-2-(2-methylphenyl)benzoyl]methionine lithium salt] reads 89%; that for `CCCOc1cccc(COCc2ccc(C(=O)N[C@@H](CCSC)C(=O)O)c(-c3ccccc3C)c2)c1` [Example 1209, N-[4-(3-(1-Propoxy)benzyloxymethyl)-2-(2-methylphenyl)benzoyl]methionine lithium salt], 87%. Turning to `CSCC[C@H](NC(=O)c1ccc(COCc2ccnnc2)cc1-c1ccccc1C)C(=O)O` [Example 1221, N-[4-(Pyridazin-4-ylmethoxymethyl)-2-(2-methylphenyl)benzoyl]methionine lithium salt], the inhibition at 0.01 µM under setting [4] amounted to 82%.

(Values after patent publication US6204293A, “Inhibitors of protein isoprenyl transferases” (University of Pittsburgh, priority 1998, dated 2001).)
